Assay results from patent US20070142392A1, “Uses of rifamycins” (ActivBiotics, Inc., priority 2005, published 2007).
In brackets after ≈: the same amount, converted by molar mass. Like-named read-outs stand apart in the source and are kept apart here.

Columns and labels:
[1] = tested on: S. aureus; test: MIC values, S. aureus (Tables 1-4); type: cell-based
[2] = tested on: E. faecalis; test: MIC values, E. faecalis (Tables 1-4); type: cell-based; conditions: for MIC F. faecalis: Table 2
[3] = tested on: C. trachomatis; test: MIC values, C. trachomatis (Table 2); type: cell-based
[4] = tested on: E. coli; test: MIC values, E. coli (Tables 1-4); type: cell-based
[5] = tested on: S. pneumo.; test: MIC values, S. pneumo. (Tables 1-4); type: cell-based
[6] = tested on: H. flu; type: cell-based
[7] = tested on: S. aureus ATCC29213; test: minimal bactericidal concentration for logarithmic phase growth (MBClog); type: cell-based; conditions: 24 hour incubation
Method: (§1) FIG. 2A is a schematic illustration showing the peak drug concentration of Compound 86 (1.13 μg/ml) in cage fluid from non-infected animals after single dose of 12.5 mg/kg. […] In this medium, bacterial counts remained stable in the absence of antibacterial agents for >36 hours.
(§2) In this medium, bacterial counts remained stable in the absence of antibacterial agents for >36 hours.
(§3) To understand the relative efficacy of peak drug concentration, it is compared to the minimal inhibitory concentration (MIC), the minimal bactericidal concentration for logarithmic phase growth (MBClog) and the MBCstat. […] The MBClog was defined as antimicrobial concentration that reduced the original inoculum by […] after 24 hour incubation (i.e. 3 log 10 CFU/ml), as described in the Manual of Clinical Microbiology. The MBCstat was determined as described in Example 1.

[8] = guinea pig, in vivo, ip
Excerpt: For pharmacokinetic studies, non-infected animals were used. […] Teflon tissue cages were implanted into the flanks of guinea pigs. For pharmacokinetic studies, non-infected animals were used.

[9] = tested on: S. aureus ATCC29213; test: MIC by broth dilution method; type: cell-based; conditions: S. aureus ATCC29213, inoculum 5×10^5 CFU/ml
Method: as §1, §2, §3

[10] = tested on: S. aureus; test: Foreign-body (tissue cage) infection model, antimicrobial treatment; type: in vivo, guinea pigs; conditions: for Cure rate of removed cages: cages removed day 9; for Mean log10 CFU/ml ± SD in aspirated cage fluid, during treatment / no. culture negative/total no., cage fluid during treatment: day 4; for Mean log10 CFU/ml ± SD in aspirated cage fluid, after treatment / no. culture negative/total no., cage fluid after treatment: day 9
Method: For pharmacokinetic studies, non-infected animals were used. […] Antibiotics were administered intraperitoneally every 12 hours for four days (total eight doses). […] The cure rate is the fraction of cages in which the infection was eradicated. […] Following incubation, 50 μl of the TSB mixture was plated on blood agar plates to determine the presence of bacteria. A foreign-body infection model in guinea pigs was used for in vivo analysis of antimicrobials as described in Example 2, however in this example the animals were infected. […] Antibiotics were administered intraperitoneally every 12 hours for four days (total eight doses).

Row | SMILES | MIC S. aureus [1] [ng/mL] | MIC F. faecalis [2] [ng/mL] | MIC C. trachomatis [3] [ng/mL] | MIC E. coli [4] [ng/mL] | MIC S. pneumo. [5] [ng/mL] | MIC H. flu [6] [ng/mL] | MIC E. faecalis [2] [ng/mL] | other results
1 | CO[C@H]1/C=C/O[C@@]2(C)Oc3c(C)c(O)c4c(=O)c(c5oc6c7c(cc(O)c6nc-5c4c3C2=O)N(C)CCN7C)NC(=O)/C(C)=C\C=C\[C@H](C)[C@H](O)[C@@H](C)[C@@H](O)[C@@H](C)[C@H](OC(C)=O)[C@@H]1C [Compound 80] | 8 (≈ 9.04 nM) | 1000 (≈ 1130 nM) | 0.064 (≈ 0.0723 nM) | 8000 (≈ 9040 nM) | 0.12 (≈ 0.136 nM) | 1000 (≈ 1130 nM) |  | 
2 | CO[C@H]1/C=C/O[C@@]2(C)Oc3c(C)c(O)c4c(=O)c(c5oc6c7c(cc(O)c6nc-5c4c3C2=O)N(C)CCN7C)NC(=O)/C(C)=C\C=C\[C@H](C)[C@H](O)[C@@H](C)[C@@H](O)[C@@H](C)[C@H](O)[C@@H]1C [Compound 81] | 500 (≈ 593 nM) | 1000 (≈ 1190 nM) | 1 (≈ 1.19 nM) | 8000 (≈ 9490 nM) | 60 (≈ 71.2 nM) | 2000 (≈ 2370 nM) |  | 
3 | CO[C@H]1/C=C/O[C@@]2(C)Oc3c(C)c(O)c4c(=O)c(c5oc6c7c(cc(O)c6nc-5c4c3C2=O)N(C)CCCN7C)NC(=O)/C(C)=C\C=C\[C@H](C)[C@H](O)[C@@H](C)[C@@H](O)[C@@H](C)[C@H](OC(C)=O)[C@@H]1C [Compound 82] | 60 (≈ 66.7 nM) | 4000 (≈ 4450 nM) | 0.064 (≈ 0.0712 nM) | >8000 | 8 (≈ 8.9 nM) | 2000 (≈ 2220 nM) |  | 
4 | CO[C@H]1/C=C/O[C@@]2(C)Oc3c(C)c(O)c4c(=O)c(c5oc6c7c(cc(O)c6nc-5c4c3C2=O)N(C)CCCN7C)NC(=O)/C(C)=C\C=C\[C@H](C)[C@H](O)[C@@H](C)[C@@H](O)[C@@H](C)[C@H](O)[C@@H]1C [Compound 83] | 120 (≈ 140 nM) | 1000 (≈ 1170 nM) | 1 (≈ 1.17 nM) | >8000 | 0.12 (≈ 0.14 nM) | 2000 (≈ 2330 nM) |  | 
5 | CO[C@H]1/C=C/O[C@@]2(C)Oc3c(C)c(O)c4c(=O)c(c5oc6c7c(cc(O)c6nc-5c4c3C2=O)N(C(C)C)CCN7C(C)C)NC(=O)/C(C)=C\C=C\[C@H](C)[C@H](O)[C@@H](C)[C@@H](O)[C@@H](C)[C@H](OC(C)=O)[C@@H]1C [Compound 84] | 60 (≈ 63.8 nM) | 4000 (≈ 4250 nM) | 10 (≈ 10.6 nM) | >8000 | 8 (≈ 8.5 nM) | 2000 (≈ 2130 nM) |  | 
6 | CO[C@H]1/C=C/O[C@@]2(C)Oc3c(C)c(O)c4c(=O)c(c5oc6cc(N7CCN(C)CC7)cc(O)c6nc-5c4c3C2=O)NC(=O)/C(C)=C\C=C\[C@H](C)[C@H](O)[C@@H](C)[C@@H](O)[C@@H](C)[C@H](O)[C@@H]1C [Compound 86] | 2 (≈ 2.33 nM) |  |  | 4000 (≈ 4670 nM) | 0.12 (≈ 0.14 nM) | 250 (≈ 292 nM) | 15 (≈ 17.5 nM) | MBClog [7]: 0.008 μg/ml; Cmin ([8]; 3 mg/kg): 40 ± 10 ng/mL; Cmax (peak drug concentration) ([8]; 12.5 mg/kg): 1130 ng/mL; Cmin ([8]; 12.5 mg/kg): 140 ± 110 ng/mL; Tmax ([8]; 12.5 mg/kg): 8 h; minimal inhibitory concentration (MIC) [9]: 2 ng/mL (≈ 2.33 nM); Cure rate of removed cages ([10]; 3 mg/kg/12 h i.p.): 8% (1/12); Mean log10 CFU/ml ± SD in aspirated cage fluid, during treatment ([10]; 3 mg/kg/12 h i.p.): 4.76 ± 0.51 log10 CFU/ml; no. culture negative/total no., cage fluid during treatment ([10]; 3 mg/kg/12 h i.p.): 2/12; Mean log10 CFU/ml ± SD in aspirated cage fluid, after treatment ([10]; 3 mg/kg/12 h i.p.): 2.77 ± 0.53 log10 CFU/ml; no. culture negative/total no., cage fluid after treatment ([10]; 3 mg/kg/12 h i.p.): 4/12; Cure rate of removed cages ([10]; 12.5 mg/kg/12 h i.p.): 58%; Cure rate of removed cages ([10]; 12.5 mg/kg/12 h i.p., listed as Cpd 86): 58% (7/12); Mean log10 CFU/ml ± SD in aspirated cage fluid, during treatment ([10]; 12.5 mg/kg/12 h i.p.): 3.24 ± 0.27 log10 CFU/ml; no. culture negative/total no., cage fluid during treatment ([10]; 12.5 mg/kg/12 h i.p.): 5/12; Mean log10 CFU/ml ± SD in aspirated cage fluid, after treatment ([10]; 12.5 mg/kg/12 h i.p.): 1.57 ± 0.53 log10 CFU/ml; no. culture negative/total no., cage fluid after treatment ([10]; 12.5 mg/kg/12 h i.p.): 10/12
7 | COC1C=COC2(C)Oc3c(C)c(O)c4c(=O)c(c5oc6cc(N7CC8CCCNC8C7)cc(O)c6nc-5c4c3C2=O)NC(=O)C(C)=CC=CC(C)C(O)C(C)C(O)C(C)C(O)C1C (centres unmarked) [Compound 144] | 30 (≈ 34 nM) |  |  | >8000 | 2 (≈ 2.26 nM) | 1000 (≈ 1130 nM) | 250 (≈ 283 nM) | 
8 | CO[C@H]1/C=C/O[C@@]2(C)Oc3c(C)c(O)c4c(=O)c(c5oc6cc(N7CC8CCC(C7)N8)cc(O)c6nc-5c4c3C2=O)NC(=O)/C(C)=C\C=C\[C@H](C)[C@H](O)[C@@H](C)[C@@H](O)[C@@H](C)[C@H](OC(C)=O)[C@@H]1C [Compound 145] | 8 (≈ 8.78 nM) |  |  | >8000 | 0.12 (≈ 0.132 nM) | 2000 (≈ 2200 nM) | 1000 (≈ 1100 nM) | 
